Source: patent US11453660B2, “Androgen receptor and glucocorticoid receptor modulators” (ONCOSTELLAE, S.L., priority 2017, dated 2022)

Columns and labels:
[1] = target: T1, Human Glucocorticoid Receptor (Homo sapiens, UniProt P04150); assay: Competition Binding in IM-9 Human Glucocorticoid Receptor (GR IM-9); details: cytosol from IM-9 cell line, 1.5 nM [3H]-Dexamethasone, 4° C. for 6 hours
T1 construct: endogenous in cells; host or cells: cytosol from IM-9 cell line
T1 sequence (P04150 1-777): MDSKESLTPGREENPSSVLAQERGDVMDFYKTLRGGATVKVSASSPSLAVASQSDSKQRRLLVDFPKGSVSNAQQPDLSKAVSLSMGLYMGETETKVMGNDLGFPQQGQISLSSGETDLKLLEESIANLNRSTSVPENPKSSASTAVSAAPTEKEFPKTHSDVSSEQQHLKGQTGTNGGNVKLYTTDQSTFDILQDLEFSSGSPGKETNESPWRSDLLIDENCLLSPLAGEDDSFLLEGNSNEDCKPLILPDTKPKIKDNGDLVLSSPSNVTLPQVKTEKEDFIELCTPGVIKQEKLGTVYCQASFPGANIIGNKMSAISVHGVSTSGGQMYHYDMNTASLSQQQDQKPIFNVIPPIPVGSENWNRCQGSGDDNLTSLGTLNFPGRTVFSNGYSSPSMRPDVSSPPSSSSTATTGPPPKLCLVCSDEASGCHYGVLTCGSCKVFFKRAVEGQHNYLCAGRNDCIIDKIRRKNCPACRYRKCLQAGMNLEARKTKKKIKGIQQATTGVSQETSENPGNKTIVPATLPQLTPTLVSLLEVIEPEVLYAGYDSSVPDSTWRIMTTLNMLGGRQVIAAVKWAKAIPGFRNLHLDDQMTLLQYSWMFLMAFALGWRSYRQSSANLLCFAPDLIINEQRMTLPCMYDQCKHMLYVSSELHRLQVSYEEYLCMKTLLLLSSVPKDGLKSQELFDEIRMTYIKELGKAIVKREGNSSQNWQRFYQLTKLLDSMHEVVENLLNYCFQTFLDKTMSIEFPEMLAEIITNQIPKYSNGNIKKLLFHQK
In short: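 Radioligand competition using 100 μg IM-9 cell cytosol and 1.5 nM [3H]-dexamethasone, incubated 6 h at 4° C in TES/molybdate buffer, pH 7.4. Filtration on PEI-treated GF/B filters, scintillation counting; nonspecific binding defined with 10 μM triamcinolone.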

human androgen receptor = target: T2, human androgen receptor (Homo sapiens, UniProt P10275, T878A); assay: Human Androgen Receptor Binding (radioligand binding, LnCap prostate cancer cell line); details: LnCap cells, displacement of [^3H]-methyltrienolone, 2 hours at 37° C.; read-out: AR LNCaP
T2 construct: endogenously expressed human androgen receptor using the LnCap prostate cancer cell line; endogenous in cells; host or cells: LNCaP prostate cancer cell line (whole cells)
T2 sequence (P10275 1-920 T878A): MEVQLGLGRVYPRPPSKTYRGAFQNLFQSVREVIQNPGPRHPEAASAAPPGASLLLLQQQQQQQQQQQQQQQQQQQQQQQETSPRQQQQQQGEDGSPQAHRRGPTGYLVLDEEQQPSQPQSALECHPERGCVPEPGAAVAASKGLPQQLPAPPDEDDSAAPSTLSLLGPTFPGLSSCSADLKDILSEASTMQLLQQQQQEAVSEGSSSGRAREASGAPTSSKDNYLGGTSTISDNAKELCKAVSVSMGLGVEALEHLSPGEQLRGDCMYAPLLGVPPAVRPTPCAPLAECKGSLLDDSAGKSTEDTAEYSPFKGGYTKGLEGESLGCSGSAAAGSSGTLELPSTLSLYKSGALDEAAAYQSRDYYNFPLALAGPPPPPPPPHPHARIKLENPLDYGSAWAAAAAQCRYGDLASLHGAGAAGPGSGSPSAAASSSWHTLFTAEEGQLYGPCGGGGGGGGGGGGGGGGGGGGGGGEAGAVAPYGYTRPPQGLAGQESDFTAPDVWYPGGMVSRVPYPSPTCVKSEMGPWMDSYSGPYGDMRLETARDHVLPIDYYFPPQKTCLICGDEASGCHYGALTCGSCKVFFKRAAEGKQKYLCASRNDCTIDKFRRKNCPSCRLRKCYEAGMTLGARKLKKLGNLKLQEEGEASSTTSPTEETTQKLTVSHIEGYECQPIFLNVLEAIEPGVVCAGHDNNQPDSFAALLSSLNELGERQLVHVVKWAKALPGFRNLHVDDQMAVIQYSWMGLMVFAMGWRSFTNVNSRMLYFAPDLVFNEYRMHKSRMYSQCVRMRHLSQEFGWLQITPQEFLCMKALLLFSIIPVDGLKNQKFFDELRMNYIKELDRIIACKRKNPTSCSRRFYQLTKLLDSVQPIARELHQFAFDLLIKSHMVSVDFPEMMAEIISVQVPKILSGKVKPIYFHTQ
Procedure: Human Androgen Receptor Binding
Radioligand binding studies were carried out on endogenously expressed human androgen receptor using the LnCap prostate cancer cell line. The test is based on measuring radioactively labelled AR ligand [^3H]-methyltrienolone that gets displaced by increasing concentrations of test compound. The test is performed in 96-well plates (Falcon, #353072). Positive and negative controls are also required in each analyzed plate to evaluate the total and non-specific binding binding of the radioligand to the receptor. Cells (60000 per well) were incubated for 24 hours before executing the experiment at 37° C. and in a 5% CO2 atmosphere. Medium was replaced by assay buffer (RPMI-640 (ATCC #30-2001) supplemented with 0.1% bovine serum albumin (Sigma #8806-56) and Triamcinolone acetonide (Sigma #T6501)). The compounds at the desired concentrations and [^3H]methyltrienolone (Perkin Elmer #NET590) were added to the wells.
In order to obtain a dose-response curve and calculate the potency of inhibition (expressed as IC50) for AR, a series of 1:10 dilutions in test in 1× buffer from 10 μM to 0.1 nM for each compound was carried out.
Cells were incubated for 2 hours at 37° C. in a 5% CO2 atmosphere and then washed twice with ice-cold HBSS. Then cells were lysed with solubilization buffer (Hank's Balanced Salt Solution (HBSS, Sigma #H6648), 0.5% Sodium dodecyl sulfate 0.5% (SDS, Sigma #L7390-500G, Lote: 078K0102) and 20% Glycerol (Sigma Aldrich, #G2025) for 30 minutes at RT. 75 μL aliquots were taken from each well and transferred to a 96-well flexiplate (Perkin Elmer #1450-401) and mixed with 100 μL of scintillation cocktail (Optiphase supermix, PerkinElmer, #1200-439). Plates are shaken for 60 minutes and radioactivity was measured in a beta scintillation counter (Microbeta Trilux, Perkin Elmer).

SMILES | IC50 [1] [µM] | IC50 (human androgen receptor) [µM]
COC(=O)C1=C(C2CC2)NC(C)=C(C(C)=O)C1c1csc2c(C(=O)NC3CC3)cccc12 (stereo not drawn) [Example J27, Methyl 5-acetyl-2-cyclopropyl-4-(7-(cyclopropylcarbamoyl)benzo[b]thiophen-3-yl)-6-methyl-1,4-dihydropyridine-3-carboxylate] | ≥ 1 | ≥ 1
COC(=O)C1=C(C2CC2)NC(N)=C(C(=O)OCC(C)(C)C)C1c1csc2c(C#N)cccc12 (stereo not drawn) [Example D45, 5-Methyl 3-neopentyl 2-amino-4-(7-cyanobenzo[b]thiophen-3-yl)-6-cyclopropyl-1,4-dihydropyridine-3,5-dicarboxylate] | < 0.1 | 0.1 to 1
COC(=O)C1=C(C2CC2)NC(C)=C(C(C)=O)C1c1csc2ccc(Cl)cc12 (stereo not drawn) [Example J25, Methyl 5-acetyl-4-(5-chlorobenzo[b]thiophen-3-yl)-2-cyclopropyl-6-methyl-1,4-dihydropyridine-3-carboxylate] |  | 0.1 to 1
COC(=O)C1=C(C)NC(C#N)=C(C(=O)OC)C1c1csc2c(C#N)cccc12 (stereo not drawn) [Example C113, Dimethyl 2-cyano-4-(7-cyanobenzo[b]thiophen-3-yl)-6-methyl-1,4-dihydropyridine-3,5-dicarboxylate] | < 0.1 | 0.1 to 1
CC(=O)C1=C(C)NC(C)=C(C(=O)OCC2CC2)C1c1csc2ccc(Cl)cc12 (stereo not drawn) [Example C32, Cyclopropylmethyl 5-acetyl-4-(5-chlorobenzo[b]thiophen-3-yl)-2,6-dimethyl-1,4-dihydropyridine-3-carboxylate] |  | ≥ 1
COC(=O)C1=C(C(F)(F)F)NC(C)=C(C(C)=O)C1c1csc2ccc(Cl)cc12 (stereo not drawn) [Example C38, Methyl 5-acetyl-4-(5-chlorobenzo[b]thiophen-3-yl)-6-methyl-2-(trifluoromethyl)-1,4-dihydropyridine-3-carboxylate] |  | < 0.1
COC(=O)C1=C(C2CC2)NC(N)=C(C(=O)OCc2ccc(F)cc2)C1c1csc2c(C#N)cccc12 (stereo not drawn) [Example D23, 3-(4-fluorobenzyl) 5-methyl 2-amino-4-(7-cyanobenzo[b]thiophen-3-yl)-6-cyclopropyl-1,4-dihydropyridine-3,5-dicarboxylate] | < 0.1 | 0.1 to 1
CC1=C(C(N)=O)C(c2csc3c(C#N)cccc23)C(C(=O)OCC2CC2)=C(N)N1 (stereo not drawn) [Example D35, Cyclopropylmethyl 2-amino-5-carbamoyl-4-(7-cyanobenzo[b]thiophen-3-yl)-6-methyl-1,4-dihydropyridine-3-carboxylate] | 0.1 to 1 | 0.1 to 1
COC(=O)C1=C(C2CC2)NC(C)=C(C(C)=O)C1c1csc2c(C#N)cccc12 (stereo not drawn) [Example J28, Methyl 5-acetyl-4-(7-cyanobenzo[b]thiophen-3-yl)-2-cyclopropyl-6-methyl-1,4-dihydropyridine-3-carboxylate] | < 0.1 | < 0.1
COC(=O)C1=C(C2CC2)NC(C2CC2)=C(C(=O)OC)C1c1csc2c(C#N)cccc12 [Example J28-a, Dimethyl 4-(7-cyanobenzo[b]thiophen-3-yl)-2,6-dicyclopropyl-1,4-dihydropyridine-3,5-dicarboxylate] | < 0.1 | 0.1 to 1
CC(=O)C1=C(C)NC(C2CC2)=C(C(=O)OCc2ccccc2)C1c1csc2ncccc12 (stereo not drawn) [Example J31, Benzyl 5-acetyl-2-cyclopropyl-6-methyl-4-(thieno[2,3-b]pyridin-3-yl)-1,4-dihydropyridine-3-carboxylate] | < 0.1 | ≥ 1
COC(=O)C1=C(C#N)NC(C2CC2)=C(C(=O)OC)C1c1csc2c(C#N)cccc12 (stereo not drawn) [Example C112, Dimethyl 2-cyano-4-(7-cyanobenzo[b]thiophen-3-yl)-6-cyclopropyl-1,4-dihydropyridine-3,5-dicarboxylate] | < 0.1 | 0.1 to 1
CC(=O)C1=C(C)NC(N)=C(C(=O)OC2CCCCC2)C1c1csc2c(C#N)cccc12 (stereo not drawn) [Example D29, Cyclohexyl 5-acetyl-2-amino-4-(7-cyanobenzo[b]thiophen-3-yl)-6-methyl-1,4-dihydropyridine-3-carboxylate] | < 0.1 | 0.1 to 1
CC(=O)C1=C(C)NC(C)=C(C(=O)OCc2ccc(F)cc2)C1c1csc2ncccc12 (stereo not drawn) [Example C47, 4-Fluorobenzyl 5-acetyl-2,6-dimethyl-4-(thieno[2,3-b]pyridin-3-yl)-1,4-dihydropyridine-3-carboxylate] | < 0.1 | 0.1 to 1
CC(=O)C1=C(C)NC(C)=C(C(C)=O)C1c1csc2c(C#N)cccc12 [Example J40, 3-(3,5-diacetyl-2,6-dimethyl-1,4-dihydropyridin-4-yl)benzo[b]thiophene-7-carbonitrile] |  | ≥ 1
COC(=O)C1=C(C(F)(F)F)NC(C)=C(C(C)=O)C1c1csc2ncccc12 (stereo not drawn) [Example C53, Methyl 5-acetyl-6-methyl-4-(thieno[2,3-b]pyridin-3-yl)-2-(trifluoromethyl)-1,4-dihydropyridine-3-carboxylate] |  | < 0.1
COC(=O)C1=C(C2CC2)NC(C)=C(C(C)=O)C1c1csc2c(C(=O)OC)cccc12 (stereo not drawn) [Example J29, Methyl 5-acetyl-2-cyclopropyl-4-(7-(methoxycarbonyl)benzo[b]thiophen-3-yl)-6-methyl-1,4-dihydropyridine-3-carboxylate] |  | 0.1 to 1
COC(=O)C1=C(C2CC2)NC(C)=C(C(C)=O)C1c1csc2c(C(=O)O)cccc12 (stereo not drawn) [Example J30, 3-(3-Acetyl-6-cyclopropyl-5-(methoxycarbonyl)-2-methyl-1,4-dihydropyridin-4-yl)benzo[b]thiophene-7-carboxylicacid] |  | ≥ 1
CC(=O)C1=C(C)NC(C(F)(F)F)=C(C(=O)OCc2ccccc2)C1c1csc2ccccc12 (stereo not drawn) [Example C45, Benzyl 5-acetyl-4-(benzo[b]thiophen-3-yl)-6-methyl-2-(trifluoromethyl)-1,4-dihydropyridine-3-carboxylate] |  | ≥ 1
